Values of other authors in US12263155B2, “Combinations of monoamine oxidase inhibitors and serotonin receptor agonists and their therapeutic use” (Remedi, Inc., priority 2022, dated 2025).
Read-outs that look alike come from different tables or passages of the source.

Legend:
[1] = in vivo; cited from earlier work
platelet MAO-B = biological target: T1, platelet MAO-B (Homo sapiens, UniProt P27338); conditions: cited from earlier work
T1 construct: host or cells: human platelets
T1 sequence (P27338 1-520): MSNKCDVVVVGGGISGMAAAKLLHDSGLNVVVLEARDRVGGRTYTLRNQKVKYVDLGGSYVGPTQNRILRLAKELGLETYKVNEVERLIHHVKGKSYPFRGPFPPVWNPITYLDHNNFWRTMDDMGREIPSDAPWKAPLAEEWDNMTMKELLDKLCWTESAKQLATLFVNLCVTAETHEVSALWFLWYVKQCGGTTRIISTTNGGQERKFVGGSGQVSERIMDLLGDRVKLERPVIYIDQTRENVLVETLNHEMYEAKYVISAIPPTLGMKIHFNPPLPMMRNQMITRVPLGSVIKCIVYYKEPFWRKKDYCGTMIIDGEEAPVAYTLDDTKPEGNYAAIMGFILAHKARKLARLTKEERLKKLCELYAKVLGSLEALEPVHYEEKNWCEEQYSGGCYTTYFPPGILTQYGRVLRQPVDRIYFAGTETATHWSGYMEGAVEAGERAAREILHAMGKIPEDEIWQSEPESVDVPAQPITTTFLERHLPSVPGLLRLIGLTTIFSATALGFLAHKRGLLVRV

| Compound | apparent volume of distribution [1] [L/kg] | inhibition of platelet MAO-B (platelet MAO-B; 450 mg dose) [%] | inhibition of platelet MAO-B (platelet MAO-B; human subjects, single 100 mg dose) [%] |
| --- | --- | --- | --- |
| CN(C)CCc1c[nH]c2ccccc12 [DMT, N,N-dimethyltryptamine] | 36 to 55 | – | – |
| O=C(NCCN1CCOCC1)c1ccc(Cl)cc1 [moclobemide] | – | 32 | 27 |
